# Source: publication doi:10.1101/2023.01.30.526200v1, “The virus-encoded ion channel “viroporin” activity of the agnoprotein is required for BK Polyomavirus release from infected kidney cells” (biorxiv, 2023)
# Experiments:
# [1] = molecular target: T1, BKPyV agnoprotein (recombinant 10xHis BK agnoprotein) (Betapolyomavirus hominis, UniProt P03085); assay: carboxyfluorescein release from liposomes, endpoint fluorescence; format: biochemical; conditions: recombinant protein pre-incubated with compound 10 min at room temperature; PA/PC liposomes, HBS pH 7.4; compound concentration not in text
# T1 construct: full-length, N-terminal 10xHis tag kept (pET19b, codon optimised), expressed in E. coli, purified by Ni-NTA, cation exchange and C4, dissolved in DMSO; SDS-resistant oligomers (copy number undefined); reconstituted in PA/PC liposomes
# T1 sequence (P03085 whole entry): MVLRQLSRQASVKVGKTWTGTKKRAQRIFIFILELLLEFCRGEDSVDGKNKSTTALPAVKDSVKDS
# [2] = molecular target: T1, BKPyV agnoprotein (recombinant 10xHis BK agnoprotein); assay: as above; format: biochemical; conditions: recombinant protein pre-incubated with compound 10 min at room temperature; PA/PC liposomes, HBS pH 7.4; 400 uM rimantadine
SMILES,reduction in CF release [1],% reduction in channel activity at 400 uM [2]
CCCCCCCCCN1C[C@H](O)[C@@H](O)[C@H](O)[C@H]1CO [NN-DNJ],Addition of NN-DNJ also led to a significant reduction in agnoprotein mediated CF release,–
CC(N)C12CC3CC(CC(C3)C1)C2 (centres unmarked) [rimantadine],–,~ 50%
